Reference: patent US10870851B2, “Non-coding RNAs linked to immortality and associated methods and compositions” (The Regents of the University of California, priority 2015, dated 2020)
Entries after “also recorded” stand apart in the source; their conditions may differ.

Legend:
[1] = MORT transcript half-life using actinomycin D treatment; assay type: cell-based; settings: actinomycin D 1 μg/ml; c-MYC and GAPDH as reference genes
Protocol: FIG. 7 is a graph showing determination of MORT transcript half-life using actinomycin D (1 μg/ml) treatment. c-MYC was used as a short half-life reference gene and GAPDH was used as a long half-life reference gene. (Yang et al. 2003). […] The error bars show the SEM of 3 independent experiments.
(§1) The reverse transcription and real-time PCR was performed as previously described in Oshiro M M, Watts G S, Wozniak R J, Junk D J, Munoz-Rodriguez J L, Domann F E, Futscher B W. Mutant p53 and aberrant cytosine methylation cooperate to silence gene expression. Oncogene 2003; 22:3624-34 (reference 1 herein), and Vrba L, Junk D J, Novak P, Futscher B W. p53 induces distinct epigenetic states at its direct target promoters. BMC Genomics 2008; 9:486 (reference 41 herein), both incorporated herein by reference. Primers were designed for MORT, GAPDH, MYC and XIST and used with the Human Universal Probe Library Set (Roche Diagnostics). The cycle threshold (Ct) MORT values were normalized between the samples using GAPDH Ct values. The data were then converted into a value that is in log 2 scale, but increases with the expression level using formula 40-Ct. Since 40 was the total number of PCR cycles it was the lowest detectable expression level and therefore it was considered the background and set as 0 to display the data in the plots.

[2] = tested on: Immortal, MORT(−) 184Dp16sMY HMEC; assay: Reversal of immortalization: lentiviral restoration of MORT expression in immortal HMEC; assay type: cell-based, human; settings: qRT/PCR during MORT-mediated senescence
Protocol: Clontech's Tet-On® 3G system was used to construct lentiviral vectors that express 1) the MORT lncRNA sequence (MORT-Exact)(SEQ ID NO:8) and 2) an aberrant MORT lncRNA to which 60 nucleotides were added at the 5′ end of MORT that was predicted to disrupt RNA secondary structure rendering MORT either hypomorphic or completely nonfunctional (MORT-null). […] Immortal, MORT(−) 184Dp16sMY HMEC were either untreated or transduced with a lentivirus that expressed MORT-Exact, MORT-Null, or eGFP. Cells transduced with MORT-Exact cease growth and take on senescent phenotypes (FIG. 19A-19B).

MCF7 = assay: 5-AdC treatment of MORT-negative breast tumor line MCF7; assay type: cell-based, human; settings: 1 μM 5-AdC for 96 h
Protocol: (§2) Finite and immortalized HMEC were generated and grown as previously described^1, 2, 32. […] […]. Retroviral transduction was performed as described^1, 2. Breast tumor lines MDA-MB231, MDA-MB453, and MCF7 were grown as previously described^33, 34.
(§3) Cells were treated with 1 μM 5-aza-2′-deoxycytidine (Sigma) for 96 h, as previously described^33.
(§4) DNA methylation analysis by MassARRAY. DNA methylation analysis by Sequenom MassARRAY (Sequenom) was performed as described^40. Primer sequences are provided in FIG. 18 and are SEQ ID NOs: 3, 4, 5, and 6. Oligonucleotides used for MassARRAY analysis were ordered from Integrated DNA Technologies. Two MassARRAY amplicons covered 800 bp region including the first MORT exon and about 500 bp upstream MORT transcription start (FIG. 4C). The mean DNA methylation of all 26 informative CpG units within MassARRAY amplicons was used for data presentation and statistical analysis.
(§5) The reverse transcription and real-time PCR was performed as previously described in Oshiro M M, Watts G S, Wozniak R J, Junk D J, Munoz-Rodriguez J L, Domann F E, Futscher B W. Mutant p53 and aberrant cytosine methylation cooperate to silence gene expression. Oncogene 2003; 22:3624-34 (reference 1 herein), and Vrba L, Junk D J, Novak P, Futscher B W. p53 induces distinct epigenetic states at its direct target promoters. […]

MDA-MB453 = assay: 5-AdC treatment of MORT-negative breast tumor line MDA-MB453; assay type: cell-based, human; settings: 1 μM 5-AdC for 96 h
Protocol: as §2, §3, §4, §5

MDA-MB231 = assay: 5-AdC treatment of MORT-negative breast tumor line MDA-MB231; assay type: cell-based, human; settings: 1 μM 5-AdC for 96 h
Protocol: as §2, §3, §4, §5

184Dp16sMY HMEC = assay: 5-AdC treatment of immortalized MORT negative HMEC line 184Dp16sMY; assay type: cell-based, human; settings: 96 h treatment, three concentrations of 5-AdC (FIG. 14)
Protocol: Finite and immortalized HMEC were generated and grown as previously described^1, 2, 32. […]. Retroviral transduction was performed as described^1, 2. Breast tumor lines MDA-MB231, MDA-MB453, and MCF7 were grown as previously described^33, 34. […]
as §1, with “plots. […]” for “plots.”

Compound	MORT transcript half-life [1] [h]	induced overexpression of p16 or p14 [2]	induction of p53 and p53 target genes MDM2, p21, PIG3, MASPIN [2]	level of DNA methylation of the MORT promoter (MCF7; Sequenom MassARRAY)	MORT expression (transcript level) (MCF7; real-time PCR)	level of DNA methylation of the MORT promoter (MDA-MB453; Sequenom MassARRAY)	MORT expression (transcript level) (MDA-MB453; real-time PCR)	level of DNA methylation of the MORT promoter (MDA-MB231; Sequenom MassARRAY)	MORT expression (transcript level) (MDA-MB231; real-time PCR)	MORT transcription (transcript level) (184Dp16sMY HMEC)
MORT: long non-coding RNA (lincRNA), 1.53 kb, ribonucleotide sequence SEQ ID NO:7	~15	not due to induced overexpression of p16 or p14	neither p53 nor well-defined p53 target genes, MDM2, p21, PIG3, and MASPIN were induced							
Nc1ncn([C@H]2C[C@H](O)[C@@H](CO)O2)c(=O)n1 [5-AdC, 5-aza-2′-deoxycytidine]				significant decrease	reactivation of MORT expression	significant decrease	reactivation of MORT expression	significant decrease	reactivation of MORT expression	reactivation of MORT transcription; also recorded: increased MORT level
